The record followed here is patent publication US11613533B2, “Compounds useful for inhibiting RET kinase” (Eli Lilly and Company, priority 2020, dated 2023).

The target of series [1] is T1, KIF5B-RET mutant form V804M in HEK293 cells (Homo sapiens, UniProt P07949, V804M).
T1 construct: expressed in transfected cells; host or cells: HEK293; the other entry of the earlier key: KIF5B (P33176, Kinesin-1 heavy chain)
T1 sequence (P07949 713-1063 V804M limits assumed): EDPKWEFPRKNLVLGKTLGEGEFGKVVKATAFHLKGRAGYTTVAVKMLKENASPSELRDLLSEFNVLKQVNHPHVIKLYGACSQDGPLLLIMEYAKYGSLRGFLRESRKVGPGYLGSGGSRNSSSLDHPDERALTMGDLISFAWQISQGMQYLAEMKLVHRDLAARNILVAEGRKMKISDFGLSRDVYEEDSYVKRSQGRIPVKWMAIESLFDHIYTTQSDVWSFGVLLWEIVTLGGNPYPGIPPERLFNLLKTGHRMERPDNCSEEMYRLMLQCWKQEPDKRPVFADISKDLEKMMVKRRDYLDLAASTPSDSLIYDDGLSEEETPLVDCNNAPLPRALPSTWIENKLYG
Put plainly: RET cell assay (In-Cell Western, phospho-RET Y1062), V804M. The class given is cell-based. As to conditions: HEK293, doxycycline-induced KIF5B-RET V804M, 1 hr compound treatment; read-out: EC50, inhibition of intracellular autophosphorylation of RET at tyrosine 1062, V804M cells. Here is the method: (§1) Compounds of formulas (I), (II), and (III) are screened for their ability to inhibit the intracellular autophosphorylation of RET at tyrosine 1062 as detected by In-Cell Western. HEK293 cells containing a doxycycline-inducible plasmid for inducible expression of KIF5B-RET WT and RET mutant forms V804M and G810S are seeded at 25,000 cells/well into black poly-D-lysine pre-coated 384-well plates (Corning, Catalog No. 356697). Expression of KIF5B-RET is induced with doxycycline at 1 μg/mL and cells are incubated at 37° C. overnight. Compounds are prepared in a threefold serial dilution in DMSO before further diluting 1:100 in media prior to the addition to the cells (0.1% final DMSO concentration). Compound treatment is performed for 1 hr at 37° C. followed by fixation of cells with 4% formaldehyde for 20 min at RT and cell permeabilisation with ice-cold MeOH for 10 min at RT. Cells are incubated with Intercept® blocking buffer (Li—COR, Catalogue No. 927-70010) for 1 hr at RT. Incubation with primary antibodies against human phospho-RET (Y1062) (R&D, Catalogue No. AF5009, 1/250 dilution) and human glyceraldehyde-3-phosphate dehydrogenase (clone 6C5, Merck, Catalog No. MAB374, 1/1000 dilution) are performed overnight at 4° C. Incubation with secondary antibodies IRDye® 800CW goat anti-rabbit IgG (Li—COR, Catalogue No. 926-32211, 1/1000 dilution) and IRDye® 680CW goat anti-mouse IgG (Li—COR, Catalogue No. 926-68070, 1/1000 dilution) are performed for 1 hr at RT. All antibody dilutions are done in Intercept® blocking buffer containing 0.05% Tween20. After washing cells with PBS-T (Cell Signaling technology, Catalogue No. 9809), the images are acquired on a Li—COR Odyssey LCx at 700 and 800 nm. Percent of DMSO control is calculated with 100% signal referring to control conditions containing no compound (0.4% DMSO only) and 0% signal represented by conditions containing control compound. The % of DMSO control values are fit to a 4 parameter logistic curve, and the determined EC50 value is defined as the estimated concentration of inhibitor at the inflexion point of the fitted curve.

Series [2] concerns the target T2, KIF5B-RET mutant form G810S in HEK293 cells (Homo sapiens, UniProt P07949, G810S).
T2 construct: expressed in transfected cells; host or cells: HEK293; the other entry of the earlier key: KIF5B (P33176, Kinesin-1 heavy chain)
T2 sequence (P07949 713-1063 G810S limits assumed): T1 sequence (P07949 713-1063 V804M limits assumed) with M92V, G98S
The series is described as follows: RET cell assay (In-Cell Western, phospho-RET Y1062), G810S. As to conditions: HEK293, doxycycline-induced KIF5B-RET G810S, 1 hr compound treatment; read-out: EC50, inhibition of intracellular autophosphorylation of RET at tyrosine 1062, G810S cells. The class given is cell-based. Here is the method: as §1

Series [3] deals with T3, KIF5B-RET WT in HEK293 cells (Homo sapiens, UniProt P07949).
T3 construct: expressed in transfected cells; host or cells: HEK293; the other entry of the earlier key: KIF5B (P33176, Kinesin-1 heavy chain)
T3 sequence (P07949 713-1063 limits assumed): T1 sequence (P07949 713-1063 V804M limits assumed) with M92V
Put plainly: RET cell assay (In-Cell Western, phospho-RET Y1062), wildtype. The class given is cell-based. As to conditions: HEK293, doxycycline-induced KIF5B-RET WT, 1 hr compound treatment; read-out: EC50, inhibition of intracellular autophosphorylation of RET at tyrosine 1062, wildtype cells. Here is the method: as §1

Usually EC50 stands for the concentration at which the effect is half-maximal. Usually melting point stands for the temperature of the solid-liquid transition.

Changes are numbered by the printed parent chain.

On to `CC(C(=O)Nc1cc(C(C)(C)C(F)(F)F)on1)c1ccc(-c2nn(C3(C)CC3)c(N)c2C(N)=O)nc1` (single isomer, unassigned; isomer 1) [Example 31, 5-Amino-1-(1-methylcyclopropyl)-3-[5-[(1-[[5-[1,1,1-trifluoro-2-methylpropan-2-yl)-1,2-oxazol-3-yl]carbamoyl]ethyl]pyridin-2-yl]pyrazole-4-carboxamide, Isomer 1], for which the EC50 in series [1], in series [2] and in series [3] was less than 100 nM each time.
Turning to `CC(C(=O)Nc1cc(CC(C)(C)C)no1)c1ccc(-c2nn(C3(C)CC3)c(N)c2C(N)=O)nc1` (single isomer, unassigned; isomer 1) [Example 33, 5-Amino-3-[5-[1-[[3-(2,2-dimethylpropyl)-1,2-oxazol-5-yl]carbamoyl]ethyl]pyridin-2-yl]-1-(1-methylcyclopropyl)pyrazole-4-carboxamide, Isomer 1], the EC50 in series [1], in series [2] and in series [3] was less than 100 nM in each case.
The compound `CC(C(=O)Nc1cc(CC(C)(C)C)no1)c1ccc(-c2nn(C(C)C)c(N)c2C(N)=O)cc1` (single isomer, unassigned; isomer 2) [Example 2, 5-Amino-3-[4-(1-[[3-(2,2-dimethylpropyl)-1,2-oxazol-5-yl]carbamoyl]ethyl)phenyl]-1-isopropylpyrazole-4-carboxamide, Isomer 2] displayed a melting point of 128 °C.
